# Laboratory results reported in patent US20230295197A1, “STAT5 and STAT6 Degraders and Uses Thereof” (REGENTS OF THE UNIVERSITY OF MICHICAN, priority 2022, published 2023).
# Read-outs that look alike come from different tables or passages of the source.
# Test system: STAT5
# Assay: Immunoblotting (Western blot) analysis of STAT5 degradation efficiency of degraders in treated cells
# Format: cell-based
# Procedure: Evaluation of the degradation efficiency of degraders may be accomplished by immunoblotting analysis. The representative general protocol is the following:
# Cells are maintained in the appropriate culture medium with 10% FBS at 37° C. and an atmosphere of 5% CO2. Cell lines are used within three months of thawing fresh vials. Cells are lysed 1× Cell Lysis Buffer (Cell Signaling Technology, #9803), resolved by SDS-PAGE NuPAGE gel (Thermo Fisher Scientific), and transferred to a PVDF membrane (Millipore). Membranes are blocked using Odyssey TBS Blocker Buffer (LI-COR). IRDye 680RD and 800CW Dye-labeled secondary antibodies (LI-COR) are used. The washed membranes are scanned using Odyssey CLx imager (LI-COR). The intensity of Western blot signaling is quantitated using the Odyssey software. Primary antibodies used are: STAT5 Rabbit mAb (Cell Signaling Technology, #94205), STAT6 Rabbit mAb (Cell Signaling Technology, #5397) and GAPDH mouse monoclonal antibody (Santa Cruz Biotechnology, sc-47724).
# To evaluate the degradation efficiency of degraders, immunoblotting analysis was performed. The general protocol is the following.
# About 1 million cells for each data point were treated with compounds at indicated concentrations and durations. Untreated and treated cells in cell culture medium were transferred into tubes, followed by centrifugation at 3,000 rpm and 4° C. for 6 min Supernatants were removed from tubes and radioimmunoprecipitation assay (RIPA) lysis buffer supplemented with 1% protease inhibitor cocktail (Fisher Scientific cat. PI87786) and phosphatase inhibitor (Roche cat. 04906837001) were added to tubes containing the remaining cell pellets. The tubes were then left on ice for 30 min and placed in a −80° C. freezer. Subsequently they were thawed in 37° C. water, then centrifuged at 14,000 rpm for 15 min and the cell lysates transferred to new tubes. The concentration of total proteins in each tube was calculated using the Pierce BCA protein Assay kit (cat. 23225). Based on the calculated protein concentration, cell lysates containing approximately the same amount of proteins were transferred to new tubes, then distilled water and 4× Protein Sample Loading Buffer for Western Blots (LI-COR cat. 928-40004) supplemented with 20% of mercaptoethanol (Sigma Aldrich cat. M6250) were added on ice. The cell lysates were then reduced and denatured at 95° C. for 5 min. From the tubes containing cell lysates an equal amount of protein samples (20-40 μg) was loaded into precast 8%, 10%, 4%-12%, or 4%-20% Tris-glycine gels (Novex) filled with Tris-glycine SDS running buffer. After the proteins were resolved, they were transferred onto Immobile-FL PVDF Membrane (Millipore Sigma cat. IPFL00010), using Mini Trans-Blot Electrophoretic Transfer Cell (Bio-Rad 1703930). The membranes were blocked with Intercept Blocking Buffer (LI-COR cat. 927-70001) in LI-COR Western Blot boxes for 1 h at rt. The membranes were washed with 1× Tris-buffered saline-Tween-20 (TBST, 1× solution was made from 20×TBST solution, ThermoFisher Scientific cat. 28360) for 5 min 4 times. The membranes were incubated overnight at 4° C. in Intercept Blocking Buffer supplemented with primary antibodies (normally antibody:buffer 1:1000) and Tween-20. The membranes were washed with TBST for 5 min 4 times and were incubated with Intercept Blocking Buffer supplemented with IRDye 800CE Secondary Antibodies, IRDye 680RD Secondary Antibodies (LI-COR biosciences), Tween-20, and 10% SDS solution, for 1 h at rt. The membranes were then washed with TBST for 5 min 4 times and rinsed with deionized water before drying and scanning with Odyssey Dlx Amazing System (LI-COR). The immunoblots were finally quantified by the software.
# [1] = MOLM-16 cells, numeric bound, read-out: DC50 S5 MOLM-16
# [2] = SKNO1 cells, read-out: DC50 S5 SKNO1
# [3] = KU-812 cells, read-out: DC50 S5 KU-812
SMILES,DC50 [1] [nM],DC50 [2] [nM],"DC50 (MOLM-16 cells, class symbols, read-out: DC50 S5 MOLM-16) [nM]",DC50 [3] [nM]
"CC(C)(C)[C@H](NC(=O)c1cc2cc(C(F)(F)P(=O)(O)O)ccc2s1)C(=O)N1CCC[C@H]1C(=O)N(CCC(=O)NCCCCC#Cc1cccc2c1CN(C1CCC(=O)NC1=O)C2=O)c1ccc(Cl)c(F)c1 (stereo partly drawn) [Compound 639, ((2-(((2S)-1-((2S)-2-((4-chloro-3-fluorophenyl)(3-((6-(2-(2,6-dioxopiperidin-3-yl)-1-oxoisoindolin-4-yl)hex-5-yn-1-yl)amino)-3-oxopropyl)carbamoyl)pyrrolidin-1-yl)-3,3-dimethyl-1-oxobutan-2-yl)carbamoyl)benzo[b]thiophen-5-yl)difluoromethyl)phosphonic acid]",> 300,> 10000,–,–
"CC(C)(C)[C@H](NC(=O)c1cc2cc(C(F)(F)P(=O)(O)O)ccc2s1)C(=O)N1C[C@H](OCc2ccc(C#Cc3cccc4c3CN(C3CCC(=O)NC3=O)C4=O)cc2)C[C@H]1C(=O)Nc1ncc(-c2ccccc2)s1 (stereo partly drawn) [Compound 632, ((2-(((2S)-1-((2S,4R)-4-((4-((2-(2,6-dioxopiperidin-3-yl)-1-oxoisoindolin-4-yl)ethynyl)benzyl)oxy)-2-((5-phenylthiazol-2-yl)carbamoyl)pyrrolidin-1-yl)-3,3-dimethyl-1-oxobutan-2-yl)carbamoyl)benzo[b]thiophen-5-yl)difluoromethyl)phosphonic acid]",> 300,–,–,–
"CC(C)(C)[C@H](NC(=O)c1cc2cc(C(F)(F)P(=O)(O)O)ccc2s1)C(=O)N1CCC[C@H]1C(=O)N(CC(=O)NCCCCC#Cc1cccc2c1CN(C1CCC(=O)NC1=O)C2=O)c1ccc(F)cc1 (stereo partly drawn) [Compound 640, ((2-(((2S)-1-((2S)-2-((2-((6-(2-(2,6-dioxopiperidin-3-yl)-1-oxoisoindolin-4-yl)hex-5-yn-1-yl)amino)-2-oxoethyl)(4-fluorophenyl)carbamoyl)pyrrolidin-1-yl)-3,3-dimethyl-1-oxobutan-2-yl)carbamoyl)benzo[b]thiophen-5-yl)difluoromethyl)phosphonic acid]",> 300,–,–,–
"CCN1CC[C@H]2CC[C@@H](C(=O)N(CCC(=O)NCCCCCC#Cc3cccc4c3CN(C3CCC(=O)NC3=O)C4=O)c3ccc(Br)cc3)N2C(=O)[C@@H](NC(=O)c2cc3cc(C(F)(F)P(=O)(O)O)ccc3s2)C1 (stereo partly drawn) [Compound 629, ((2-(((5S,8S,10aR)-8-((4-bromophenyl)(3-((7-(2-(2,6-dioxopiperidin-3-yl)-1-oxoisoindolin-4-yl)hept-6-yn-1-yl)amino)-3-oxopropyl)carbamoyl)-3-ethyl-6-oxodecahydropyrrolo[1,2-a][1,5]diazocin-5-yl)carbamoyl)benzo[b]thiophen-5-yl)difluoromethyl)phosphonic acid]",> 300,–,–,–
"CCN1CC[C@H]2CC[C@@H](C(=O)N(CCC(=O)NCCCC#Cc3cccc4c3CN(C3CCC(=O)NC3=O)C4=O)c3ccc(Br)cc3)N2C(=O)[C@@H](NC(=O)c2cc3cc(C(F)(F)P(=O)(O)O)ccc3s2)C1 (stereo partly drawn) [Compound 627, ((2-(((5S,8S,10aR)-8-((4-bromophenyl)(3-((5-(2-(2,6-dioxopiperidin-3-yl)-1-oxoisoindolin-4-yl)pent-4-yn-1-yl)amino)-3-oxopropyl)carbamoyl)-3-ethyl-6-oxodecahydropyrrolo[1,2-a][1,5]diazocin-5-yl)carbamoyl)benzo[b]thiophen-5-yl)difluoromethyl)phosphonic acid]",> 300,–,–,–
"CC(C)(C)[C@H](NC(=O)c1cc2cc(C(F)(F)P(=O)(O)O)ccc2s1)C(=O)N1CCC[C@H]1C(=O)N(CCC(=O)NCCCCC#Cc1cccc2c1CN(C1CCC(=O)NC1=O)C2=O)c1ccc(Cl)cc1 (stereo partly drawn) [Compound 638, ((2-(((2S)-1-((2S)-2-((4-chlorophenyl)(3-((6-(2-(2,6-dioxopiperidin-3-yl)-1-oxoisoindolin-4-yl)hex-5-yn-1-yl)amino)-3-oxopropyl)carbamoyl)pyrrolidin-1-yl)-3,3-dimethyl-1-oxobutan-2-yl)carbamoyl)benzo[b]thiophen-5-yl)difluoromethyl)phosphonic acid]",–,–,100 to 1000,–
"CC(C)(C)[C@H](NC(=O)c1cc2cc(C(F)(F)P(=O)(O)O)ccc2s1)C(=O)N1CCC[C@H]1C(=O)N(CCC(=O)N1CCC(C#Cc2cccc3c2CN(C2CCC(=O)NC2=O)C3=O)CC1)c1ccc(Br)cc1 (stereo partly drawn) [Compound 613, ((2-(((2S)-1-((2S)-2-((4-bromophenyl)(3-(4-((2-(2,6-dioxopiperidin-3-yl)-1-oxoisoindolin-4-yl)ethynyl)piperidin-1-yl)-3-oxopropyl)carbamoyl)pyrrolidin-1-yl)-3,3-dimethyl-1-oxobutan-2-yl)carbamoyl)benzo[b]thiophen-5-yl)difluoromethyl)phosphonic acid]",> 300,> 10000,–,> 10000
"CN(CCCC#Cc1cccc2c1CN(C1CCC(=O)NC1=O)C2=O)C(=O)CCN(C(=O)[C@@H]1CCCN1C(=O)[C@@H](NC(=O)c1cc2cc(C(F)(F)P(=O)(O)O)ccc2s1)C(C)(C)C)c1ccc2scnc2c1 (stereo partly drawn) [Compound 684, ((2-(((2S)-1-((2S)-2-(benzo[d]thiazol-5-yl(3-((5-(2-(2,6-dioxopiperidin-3-yl)-1-oxoisoindolin-4-yl)pent-4-yn-1-yl)(methyl)amino)-3-oxopropyl)carbamoyl)pyrrolidin-1-yl)-3,3-dimethyl-1-oxobutan-2-yl)carbamoyl)benzo[b]thiophen-5-yl)difluoromethyl)phosphonic acid]",–,100 to 1000,–,100 to 1000
"CC(C)(C)[C@H](NC(=O)c1cc2cc(C(F)(F)P(=O)(O)O)ccc2s1)C(=O)N1CCC[C@H]1C(=O)N(CCC(=O)NCCCC#Cc1cccc2c1CN(C1CCC(=O)NC1=O)C2=O)c1ccc(C(F)(F)F)cc1 (stereo partly drawn) [Compound 644, ((2-(((2S)-1-((2S)-2-((3-((5-(2-(2,6-dioxopiperidin-3-yl)-1-oxoisoindolin-4-yl)pent-4-yn-1-yl)amino)-3-oxopropyl)(4-(trifluoromethyl)phenyl)carbamoyl)pyrrolidin-1-yl)-3,3-dimethyl-1-oxobutan-2-yl)carbamoyl)benzo[b]thiophen-5-yl)difluoromethyl)phosphonic acid]",> 300,1000 to 10000,–,–
"CC(C)(C)[C@H](NC(=O)c1cc2cc(C(F)(F)P(=O)(O)O)ccc2s1)C(=O)N1CCC[C@H]1C(=O)N(CCC(=O)NCCCC#Cc1cccc2c1CN(C1CCC(=O)NC1=O)C2=O)c1ccc(Cl)c(F)c1 (stereo partly drawn) [Compound 636, ((2-(((2S)-1-((2S)-2-((4-chloro-3-fluorophenyl)(3-((5-(2-(2,6-dioxopiperidin-3-yl)-1-oxoisoindolin-4-yl)pent-4-yn-1-yl)amino)-3-oxopropyl)carbamoyl)pyrrolidin-1-yl)-3,3-dimethyl-1-oxobutan-2-yl)carbamoyl)benzo[b]thiophen-5-yl)difluoromethyl)phosphonic acid]",> 300,> 10000,–,–
"CC(C)(C)[C@H](NC(=O)c1cc2cc(C(F)(F)P(=O)(O)O)ccc2s1)C(=O)N1CCC[C@H]1C(=O)N(CCC(=O)NCCCC#Cc1cccc2c1CN(C1CCC(=O)NC1=O)C2=O)c1cccc(C#N)c1 (stereo partly drawn) [Compound 643, ((2-(((2S)-1-((2S)-2-((3-cyanophenyl)(3-((5-(2-(2,6-dioxopiperidin-3-yl)-1-oxoisoindolin-4-yl)pent-4-yn-1-yl)amino)-3-oxopropyl)carbamoyl)pyrrolidin-1-yl)-3,3-dimethyl-1-oxobutan-2-yl)carbamoyl)benzo[b]thiophen-5-yl)difluoromethyl)phosphonic acid]",> 300,> 10000,–,–
